Laboratory results as given in ChEMBL document CHEMBL3102847, “Structure of the σ1 receptor and its ligand binding site” (J Med Chem, 2013).

What was measured:
[1] = target: T1, Sigma non-opioid intracellular receptor 1 (Rattus norvegicus, UniProt Q9R0C9); experiment: Displacement of [125I]IACoc from sigma 1 receptor in rat liver microsomes
[2] = target: T2, Sigma non-opioid intracellular receptor 1 (Homo sapiens, UniProt Q99720); experiment: Displacement of [125I]N-IACoc from sigma 1 receptor (unknown origin)
T2 sequence (Q99720 whole entry): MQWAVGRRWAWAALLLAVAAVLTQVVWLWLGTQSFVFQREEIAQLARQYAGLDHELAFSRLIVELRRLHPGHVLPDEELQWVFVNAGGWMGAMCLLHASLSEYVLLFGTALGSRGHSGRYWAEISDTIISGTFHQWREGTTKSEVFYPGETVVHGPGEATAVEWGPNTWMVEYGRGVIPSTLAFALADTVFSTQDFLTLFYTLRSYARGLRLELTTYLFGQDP

[3] = target: T2, Sigma non-opioid intracellular receptor 1; experiment: Displacement of [125I]N-IAC44 from sigma 1 receptor (unknown origin)
[4] = target: T1, Sigma non-opioid intracellular receptor 1; experiment: Displacement of [3H]-(+)-pentazocine from sigma 1 receptor in rat liver homogenates; type: tissue-based

T1 sequence (Q9R0C9 whole entry): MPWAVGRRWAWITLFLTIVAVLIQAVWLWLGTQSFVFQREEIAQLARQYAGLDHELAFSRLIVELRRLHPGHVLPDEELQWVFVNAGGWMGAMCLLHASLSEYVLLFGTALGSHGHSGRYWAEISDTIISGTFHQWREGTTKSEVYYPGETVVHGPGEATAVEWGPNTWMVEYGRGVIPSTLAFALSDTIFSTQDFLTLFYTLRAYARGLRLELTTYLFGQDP

Question: With `COC(=O)[C@H]1[C@@H](OC(=O)c2ccc(N=[N+]=[N-])c([125I])c2)C[C@@H]2CC[C@H]1N2C` as the compound, how does the Ki [1] read?
Answer: Its Ki is 0.126 nM.

Question: Which Kd [2] does the source give for `COC(=O)[C@H]1[C@@H](OC(=O)c2ccccc2)C[C@@H]2CC[C@H]1N2CCc1ccc(N=[N+]=[N-])c([125I])c1` here?
Answer: Its Kd is 11 nM.

Question: For `CCCN(CCCc1ccccc1)CCc1ccc(N=[N+]=[N-])c([125I])c1`, which Kd [3] is on record?
Answer: The Kd was 7.2 nM.

Question: `CN(C)CCc1c[nH]c2ccccc12` [N,N-DIMETHYLTRYPTAMINE] was tested. Which Ki [4] did it give?
Answer: The Ki was 15.4 µM.
